Experimental data: US12077503B2, “Substituted cyclic amides and their use as herbicides” (FMC CORPORATION, priority 2015, dated 2024)

Tests used:
Format in all cases: in vivo
[1] = test system: ryegrass, Italian (Italian ryegrass, Lolium multiflorum); test: Test A postemergence; conditions: Lolium multiflorum, post-emergence, 240 h
Outline: (§1)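 Visual injury, scored on a 0–100 scale relative to untreated controls, was recorded about 10 d after application. Treatments were a preemergence soil spray over planted seeds or a postemergence spray on plants at the one- to two-leaf stage, 2 to 10 cm tall, all in loam soil–sand blend in the greenhouse.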

corn (Zea mays) = test: Test A postemergence; conditions: Zea mays, post-emergence, 240 h
Outline: as §1

[2] = test system: ragweed (common ragweed, Ambrosia elatior); test: Test A postemergence; conditions: Ambrosia artemisiifolia, post-emergence, 240 h
Outline: as §1

[3] = test system: blackgrass (Alopecurus myosuroides); test: Test A postemergence; conditions: Alopecurus myosuroides, post-emergence, 240 h
Outline: as §1

[4] = test system: giant foxtail (Setaria faberii); test: Test A postemergence; conditions: Setaria faberi, post-emergence, 240 h
Outline: as §1

Kochia (Kochia scoparia) [5] = test: Test A postemergence; conditions: Bassia scoparia, post-emergence, 240 h
Outline: as §1

[6] = test system: Galium (catchweed bedstraw, Galium aparine); test: Test A postemergence; conditions: Galium, post-emergence, 240 h
Outline: as §1

[7] = test system: barnyardgrass (Echinochloa crus-galli); test: Test A postemergence; conditions: Echinochloa crus-galli, post-emergence, 240 h
Outline: as §1

[8] = test system: pigweed (Amaranthus retroflexus); test: Test A postemergence; conditions: Amaranthus retroflexus, post-emergence, 240 h
Outline: as §1

[9] = test system: wheat (Triticum aestivum); test: Test A postemergence; conditions: Triticum aestivum, post-emergence, 240 h
Outline: as §1

[10] = test system: ryegrass, Italian (Italian ryegrass, Lolium multiflorum); test: Test A preemergence; conditions: Lolium multiflorum, pre-emergence, 240 h, preemergence, 0 to 100 scale where 0 is no effect and 100 is complete control, read-out: Ryegrass, Italian plant response rating
Outline: as §1

[11] = test system: ragweed (common ragweed, Ambrosia elatior); test: Test A preemergence; conditions: Ambrosia artemisiifolia, pre-emergence, 240 h, preemergence, 0 to 100 scale where 0 is no effect and 100 is complete control, read-out: Ragweed plant response rating
Outline: as §1

[12] = test system: giant foxtail (Setaria faberii); test: Test A preemergence; conditions: Setaria faberi, pre-emergence, 240 h, preemergence, 0 to 100 scale where 0 is no effect and 100 is complete control, read-out: Foxtail, Giant plant response rating
Outline: as §1

Kochia (Kochia scoparia) [13] = test: Test A preemergence; conditions: Bassia scoparia, pre-emergence, 240 h, preemergence, 0 to 100 scale where 0 is no effect and 100 is complete control, read-out: Kochia plant response rating
Outline: as §1

[14] = test system: barnyardgrass (Echinochloa crus-galli); test: Test A preemergence; conditions: Echinochloa crus-galli, pre-emergence, 240 h, preemergence, 0 to 100 scale where 0 is no effect and 100 is complete control, read-out: Barnyardgrass plant response rating
Outline: as §1

[15] = test system: pigweed (Amaranthus retroflexus); test: Test A preemergence; conditions: Amaranthus retroflexus, pre-emergence, 240 h, preemergence, 0 to 100 scale where 0 is no effect and 100 is complete control, read-out: Pigweed plant response rating
[16] = 125 g ai/ha, visual injury rating, approximately 10 d

CN1C[C@H](c2cccc(C(F)(F)F)c2)[C@@H](C(=O)Nc2ccc(F)cc2C(F)(F)F)C1=O [Compound 1250]
50%: pest or weed control at 500 g/ha ([1]; Postemergence, 500 g ai/ha, visual injury, 0 to 100 scale (0 no effect, 100 complete control), approx. 10 d, read-out: Plant response rating, Ryegrass, Italian) | pest or weed control at 125 g/ha [10, 16] | pest or weed control at 500 g/ha ([10]; 500 g ai/ha)
20%: pest or weed control at 125 g/ha ([1]; 125 g ai/ha, postemergence, visual injury vs untreated controls after approx. 10 d, 0 = no effect, 100 = complete control, read-out: Ryegrass, Italian plant response rating (0 to 100 scale)) | pest or weed control at 125 g/ha ([3]; 125 g ai/ha, postemergence, visual injury vs untreated controls after approx. 10 d, 0 = no effect, 100 = complete control, read-out: Blackgrass plant response rating (0 to 100 scale)) | pest or weed control at 500 g/ha (Kochia (Kochia scoparia) [5]; Postemergence, 500 g ai/ha, visual injury, 0 to 100 scale (0 no effect, 100 complete control), approx. 10 d, read-out: Plant response rating, Kochia)
0%: pest or weed control at 125 g/ha ([2]; 125 g ai/ha, postemergence, visual injury vs untreated controls after approx. 10 d, 0 = no effect, 100 = complete control, read-out: Ragweed plant response rating (0 to 100 scale)) | pest or weed control at 500 g/ha ([2]; Postemergence, 500 g ai/ha, visual injury, 0 to 100 scale (0 no effect, 100 complete control), approx. 10 d, read-out: Plant response rating, Ragweed) | pest or weed control at 125 g/ha (Kochia (Kochia scoparia) [5]; 125 g ai/ha, postemergence, visual injury vs untreated controls after approx. 10 d, 0 = no effect, 100 = complete control, read-out: Kochia plant response rating (0 to 100 scale)) | pest or weed control at 125 g/ha ([8]; 125 g ai/ha, postemergence, visual injury vs untreated controls after approx. 10 d, 0 = no effect, 100 = complete control, read-out: Pigweed plant response rating (0 to 100 scale)) | pest or weed control at 125 g/ha [11, 16] | pest or weed control at 500 g/ha ([11]; 500 g ai/ha) | pest or weed control at 125 g/ha (Kochia (Kochia scoparia) [13]; [16])
40%: plant injury at 125 g/ha (corn (Zea mays); 125 g ai/ha, postemergence, visual injury vs untreated controls after approx. 10 d, 0 = no effect, 100 = complete control, read-out: Corn plant response rating (0 to 100 scale)) | pest or weed control at 125 g/ha ([6]; 125 g ai/ha, postemergence, visual injury vs untreated controls after approx. 10 d, 0 = no effect, 100 = complete control, read-out: Galium plant response rating (0 to 100 scale)) | plant injury at 125 g/ha ([9]; 125 g ai/ha, postemergence, visual injury vs untreated controls after approx. 10 d, 0 = no effect, 100 = complete control, read-out: Wheat plant response rating (0 to 100 scale)) | pest or weed control at 500 g/ha (Kochia (Kochia scoparia) [13]; 500 g ai/ha)
90%: pest or weed control at 500 g/ha ([7]; Postemergence, 500 g ai/ha, visual injury, 0 to 100 scale (0 no effect, 100 complete control), approx. 10 d, read-out: Plant response rating, Barnyardgrass)
70%: Corn plant response rating (crop injury, 0 = no effect, 100 = complete kill) at 500 g/ha (corn (Zea mays); Postemergence, 500 g ai/ha, visual injury, 0 to 100 scale (0 no effect, 100 complete control), approx. 10 d) | pest or weed control at 125 g/ha ([7]; 125 g ai/ha, postemergence, visual injury vs untreated controls after approx. 10 d, 0 = no effect, 100 = complete control, read-out: Barnyardgrass plant response rating (0 to 100 scale)) | plant injury at 500 g/ha ([9]; Postemergence, 500 g ai/ha, visual injury, 0 to 100 scale (0 no effect, 100 complete control), approx. 10 d, read-out: Plant response rating, Wheat)
80%: pest or weed control at 125 g/ha ([4]; 125 g ai/ha, postemergence, visual injury vs untreated controls after approx. 10 d, 0 = no effect, 100 = complete control, read-out: Foxtail, Giant plant response rating (0 to 100 scale)) | pest or weed control at 500 g/ha ([4]; Postemergence, 500 g ai/ha, visual injury, 0 to 100 scale (0 no effect, 100 complete control), approx. 10 d, read-out: Plant response rating, Foxtail, Giant)
100%: pest or weed control at 125 g/ha [12, 16] | pest or weed control at 500 g/ha ([12]; 500 g ai/ha) | pest or weed control at 125 g/ha [14, 16] | pest or weed control at 500 g/ha ([14]; 500 g ai/ha)
60%: pest or weed control at 500 g/ha ([3]; Postemergence, 500 g ai/ha, visual injury, 0 to 100 scale (0 no effect, 100 complete control), approx. 10 d, read-out: Plant response rating, Blackgrass) | pest or weed control at 500 g/ha ([6]; Postemergence, 500 g ai/ha, visual injury, 0 to 100 scale (0 no effect, 100 complete control), approx. 10 d, read-out: Plant response rating, Galium)
30%: pest or weed control at 500 g/ha ([8]; Postemergence, 500 g ai/ha, visual injury, 0 to 100 scale (0 no effect, 100 complete control), approx. 10 d, read-out: Plant response rating, Pigweed) | pest or weed control at 125 g/ha [15, 16] | pest or weed control at 500 g/ha ([15]; 500 g ai/ha)
